Results reported in ChEMBL document CHEMBL6182870, “Synthesis and biological activity of 1H-pyrrolo[3,2-g]isoquinolines as Haspin kinase inhibitors” (Bioorg Med Chem, 2025).

What was measured:
[1] = target: T1, Serine/threonine-protein kinase haspin (Homo sapiens) (UniProt Q8TF76); experiment: Inhibition of haspin in human U2OS cells assessed as at 1 uM incubated for 16 hrs by DAPI staining based immunofluorescence analysis relative to control; assay type: cell-based
T1 sequence (whole entry): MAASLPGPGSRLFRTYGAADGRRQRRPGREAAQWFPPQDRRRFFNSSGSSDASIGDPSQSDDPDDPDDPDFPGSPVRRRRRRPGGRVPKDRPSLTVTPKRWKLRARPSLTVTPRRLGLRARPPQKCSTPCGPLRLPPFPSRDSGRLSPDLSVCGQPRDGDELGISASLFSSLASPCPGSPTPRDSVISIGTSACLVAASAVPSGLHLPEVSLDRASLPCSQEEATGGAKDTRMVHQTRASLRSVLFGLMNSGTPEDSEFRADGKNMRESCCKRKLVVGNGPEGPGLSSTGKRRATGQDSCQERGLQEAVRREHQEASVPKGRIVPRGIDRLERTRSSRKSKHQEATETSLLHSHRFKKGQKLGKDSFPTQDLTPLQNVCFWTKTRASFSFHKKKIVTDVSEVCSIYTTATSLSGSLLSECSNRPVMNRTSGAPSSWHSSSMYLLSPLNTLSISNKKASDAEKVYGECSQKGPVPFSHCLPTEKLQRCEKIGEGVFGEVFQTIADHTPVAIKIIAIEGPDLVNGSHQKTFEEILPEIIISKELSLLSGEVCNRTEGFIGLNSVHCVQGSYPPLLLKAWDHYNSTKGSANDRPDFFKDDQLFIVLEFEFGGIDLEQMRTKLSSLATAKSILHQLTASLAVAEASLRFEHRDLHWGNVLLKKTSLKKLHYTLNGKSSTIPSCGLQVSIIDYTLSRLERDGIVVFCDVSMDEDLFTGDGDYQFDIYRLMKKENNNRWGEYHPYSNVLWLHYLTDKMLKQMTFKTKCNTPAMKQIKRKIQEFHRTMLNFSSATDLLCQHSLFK

[2] = target: T1, Serine/threonine-protein kinase haspin (Homo sapiens); experiment: Inhibition of recombinant human haspin kinase domain (470 to 798 residues) extracted from bacteria using histone H3 (1 to 21) peptide as substrate assessed as residual activity at 10 uM incubated for 30 mins in presence of ATP by ADP-Glo kinase assay relative to control
[3] = target: T1, Serine/threonine-protein kinase haspin (Homo sapiens); experiment: Inhibition of recombinant human haspin kinase domain (470 to 798 residues) extracted from bacteria using histone H3 (1 to 21) peptide as substrate assessed as residual activity at 1 uM incubated for 30 mins in presence of ATP by ADP-Glo kinase assay relative to control
[4] = target: T2, Serine/threonine-protein kinase haspin (Homo sapiens, UniProt Q8TF76); experiment: Inhibition of recombinant human haspin kinase domain (470 to 798 residues) extracted from bacteria using histone H3 (1 to 21) peptide as substrate incubated for 30 mins in presence of ATP by ADP-Glo kinase assay
T2 sequence (Q8TF76 whole entry): T1 sequence (whole entry)

[5] = target: Dual specificity tyrosine-phosphorylation-regulated kinase 1A (Rattus norvegicus) (UniProt Q63470); experiment: Inhibition of recombinant rat DYRK1A kinase domain (1 to 499 residues) extracted from bacteria using KKISGRLSPIMTEQ as substrate assessed as enzyme residual activity at 10 uM incubated for 30 mins in presence of ATP by ADP-Glo kinase assay relative to control
[6] = target: Dual specificity protein kinase CLK1 (Mus musculus) (UniProt P22518); experiment: Inhibition of recombinant mouse CLK1 extracted from bacteria using GRSRSRSRSRSR as substrate assessed as enzyme residual activity at 10 uM incubated for 30 mins in presence of ATP by ADP-Glo kinase assay relative to control
Dual specificity protein kinase CLK1 (Mus musculus), sequence (P22518 whole entry, looked up): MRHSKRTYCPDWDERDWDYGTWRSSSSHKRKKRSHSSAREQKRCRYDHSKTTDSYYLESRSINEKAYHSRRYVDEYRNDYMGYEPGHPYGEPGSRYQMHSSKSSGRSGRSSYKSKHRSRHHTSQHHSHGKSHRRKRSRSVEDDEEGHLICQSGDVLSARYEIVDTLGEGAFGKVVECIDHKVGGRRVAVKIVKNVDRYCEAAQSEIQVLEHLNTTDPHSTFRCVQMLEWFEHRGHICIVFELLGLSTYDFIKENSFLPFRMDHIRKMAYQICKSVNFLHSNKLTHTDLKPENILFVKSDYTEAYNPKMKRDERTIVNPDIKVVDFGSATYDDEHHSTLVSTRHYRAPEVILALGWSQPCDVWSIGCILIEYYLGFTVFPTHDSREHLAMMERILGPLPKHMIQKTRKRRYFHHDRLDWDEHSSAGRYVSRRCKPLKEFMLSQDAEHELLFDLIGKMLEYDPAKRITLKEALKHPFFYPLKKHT

[7] = target: Dual specificity protein kinase CLK1 (Mus musculus) (UniProt P22518); experiment: Inhibition of recombinant mouse CLK1 extracted from bacteria using GRSRSRSRSRSR as substrate assessed as enzyme residual activity at 1 uM incubated for 30 mins in presence of ATP by ADP-Glo kinase assay relative to control
[8] = target: Dual specificity protein kinase CLK1 (Mus musculus, UniProt P22518); experiment: Inhibition of recombinant mouse CLK1 extracted from bacteria using GRSRSRSRSRSR as substrate incubated for 30 mins in presence of ATP by ADP-Glo kinase assay
Dual specificity protein kinase CLK1, sequence (P22518 whole entry, the tested form may be a part): as the sequence (P22518 whole entry, looked up) above

[9] = target: Dual specificity tyrosine-phosphorylation-regulated kinase 1A (Rattus norvegicus) (UniProt Q63470); experiment: Inhibition of recombinant rat DYRK1A kinase domain (1 to 499 residues) extracted from bacteria using KKISGRLSPIMTEQ as substrate assessed as enzyme residual activity at 1 uM incubated for 30 mins in presence of ATP by ADP-Glo kinase assay relative to control
[10] = target: Dual specificity tyrosine-phosphorylation-regulated kinase 1A (Rattus norvegicus, UniProt Q63470); experiment: Inhibition of recombinant rat DYRK1A kinase domain (1 to 499 residues) extracted from bacteria using KKISGRLSPIMTEQ as substrate incubated for 30 mins in presence of ATP by ADP-Glo kinase assay
[11] = Inhibition of recombinant human CDK9/Cyclin T extracted from baculovirus infected Sf9 cells using YSPTSPSYSPTSPSYSPTSPSKKKK as substrate assessed as enzyme residual activity at 10 uM incubated for 30 mins in presence of ATP by ADP-Glo kinase assay relative to control
[12] = Inhibition of recombinant human CDK9/Cyclin T extracted from baculovirus infected Sf9 cells using YSPTSPSYSPTSPSYSPTSPSKKKK as substrate assessed as enzyme residual activity at 1 uM incubated for 30 mins in presence of ATP by ADP-Glo kinase assay relative to control
[13] = target: Glycogen synthase kinase-3 beta (Homo sapiens) (UniProt P49841); experiment: Inhibition of recombinant human GSK3beta extracted from baculovirus infected Sf9 cells using GS-1 (YRRAAVPPSPSLSRHSSPHQSpEDEEE) peptide as substrate assessed as enzyme residual activity at 10 uM incubated for 30 mins in presence of ATP by ADP-Glo kinase assay relative to control
Glycogen synthase kinase-3 beta (Homo sapiens), sequence (P49841 whole entry, looked up, canonical isoform): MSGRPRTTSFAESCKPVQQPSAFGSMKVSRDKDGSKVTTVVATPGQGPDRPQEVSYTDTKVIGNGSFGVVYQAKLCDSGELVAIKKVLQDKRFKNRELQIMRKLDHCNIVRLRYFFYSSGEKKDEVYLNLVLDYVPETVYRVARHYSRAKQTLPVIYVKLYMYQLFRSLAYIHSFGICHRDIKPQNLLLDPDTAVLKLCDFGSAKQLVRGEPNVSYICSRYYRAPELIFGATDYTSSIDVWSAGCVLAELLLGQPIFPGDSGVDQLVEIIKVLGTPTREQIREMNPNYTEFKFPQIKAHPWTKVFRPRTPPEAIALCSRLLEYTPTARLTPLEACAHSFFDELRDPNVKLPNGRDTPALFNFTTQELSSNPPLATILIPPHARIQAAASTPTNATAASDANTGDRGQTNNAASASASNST

[14] = target: Glycogen synthase kinase-3 beta (Homo sapiens) (UniProt P49841); experiment: Inhibition of recombinant human GSK3beta extracted from baculovirus infected Sf9 cells using GS-1 (YRRAAVPPSPSLSRHSSPHQSpEDEEE) peptide as substrate assessed as enzyme residual activity at 1 uM incubated for 30 mins in presence of ATP by ADP-Glo kinase assay relative to control
[15] = target: Casein kinase I isoform epsilon (Homo sapiens) (UniProt P49674); experiment: Inhibition of recombinant human CK1epsilon extracted from baculovirus infected Sf9 cells using RRKHAAIGSpAYSITA peptide as substrate assessed as enzyme residual activity at 10 uM incubated for 30 mins in presence of ATP by ADP-Glo kinase assay relative to control
Casein kinase I isoform epsilon (Homo sapiens), sequence (P49674 whole entry, looked up, canonical isoform): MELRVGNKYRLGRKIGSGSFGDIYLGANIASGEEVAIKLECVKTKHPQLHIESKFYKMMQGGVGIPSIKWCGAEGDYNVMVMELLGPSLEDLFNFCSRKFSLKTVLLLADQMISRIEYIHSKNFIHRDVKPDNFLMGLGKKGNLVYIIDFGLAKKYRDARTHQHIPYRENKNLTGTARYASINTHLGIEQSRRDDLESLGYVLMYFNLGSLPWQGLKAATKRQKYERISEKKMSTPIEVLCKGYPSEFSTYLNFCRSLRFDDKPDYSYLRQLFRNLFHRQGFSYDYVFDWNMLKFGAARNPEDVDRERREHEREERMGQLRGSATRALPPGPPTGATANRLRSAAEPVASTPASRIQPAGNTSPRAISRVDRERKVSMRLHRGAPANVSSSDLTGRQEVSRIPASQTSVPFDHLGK

[16] = target: Casein kinase I isoform epsilon (Homo sapiens) (UniProt P49674); experiment: Inhibition of recombinant human CK1epsilon extracted from baculovirus infected Sf9 cells using RRKHAAIGSpAYSITA peptide as substrate assessed as enzyme residual activity at 1 uM incubated for 30 mins in presence of ATP by ADP-Glo kinase assay relative to control
[17] = target: T3, Cyclin-dependent kinase 5/CDK5 activator 1 (Homo sapiens) (UniProt Q00535+Q15078); experiment: Inhibition of recombinant human CDK5/p25 extracted from bacteria using histone H1 as substrate assessed as enzyme residual activity at 10 uM incubated for 30 mins in presence of ATP by ADP-Glo kinase assay relative to control; assay type: protein-complex assay
T3 sequence (Q00535 whole entry): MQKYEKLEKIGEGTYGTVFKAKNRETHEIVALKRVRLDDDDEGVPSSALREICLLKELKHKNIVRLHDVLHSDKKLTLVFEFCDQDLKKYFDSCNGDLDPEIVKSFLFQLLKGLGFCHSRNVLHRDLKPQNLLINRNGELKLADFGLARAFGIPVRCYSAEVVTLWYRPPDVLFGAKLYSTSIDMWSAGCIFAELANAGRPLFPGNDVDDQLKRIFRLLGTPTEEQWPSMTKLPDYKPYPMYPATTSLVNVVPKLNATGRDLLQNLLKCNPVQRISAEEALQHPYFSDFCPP
T3 sequence (Q15078 99-307 partner limits assumed): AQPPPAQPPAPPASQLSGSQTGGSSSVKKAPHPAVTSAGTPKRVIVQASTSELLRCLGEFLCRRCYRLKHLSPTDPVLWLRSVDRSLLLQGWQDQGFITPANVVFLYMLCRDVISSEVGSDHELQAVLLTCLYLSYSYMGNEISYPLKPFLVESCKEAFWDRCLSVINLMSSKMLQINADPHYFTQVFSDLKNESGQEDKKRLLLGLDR

[18] = target: T3, Cyclin-dependent kinase 5/CDK5 activator 1 (Homo sapiens); experiment: Inhibition of recombinant human CDK5/p25 extracted from bacteria using histone H1 as substrate assessed as enzyme residual activity at 1 uM incubated for 30 mins in presence of ATP by ADP-Glo kinase assay relative to control; assay type: protein-complex assay
[19] = target: T4, Serine/threonine-protein kinase pim-1 (Homo sapiens, UniProt P11309); experiment: Inhibition of recombinant human PIM-1 extracted from bacteria using histone H1 as substrate assessed as enzyme residual activity at 10 uM incubated for 30 mins in presence of ATP by ADP-Glo kinase assay relative to control
Target sequence in this assay (P11309 whole entry, looked up): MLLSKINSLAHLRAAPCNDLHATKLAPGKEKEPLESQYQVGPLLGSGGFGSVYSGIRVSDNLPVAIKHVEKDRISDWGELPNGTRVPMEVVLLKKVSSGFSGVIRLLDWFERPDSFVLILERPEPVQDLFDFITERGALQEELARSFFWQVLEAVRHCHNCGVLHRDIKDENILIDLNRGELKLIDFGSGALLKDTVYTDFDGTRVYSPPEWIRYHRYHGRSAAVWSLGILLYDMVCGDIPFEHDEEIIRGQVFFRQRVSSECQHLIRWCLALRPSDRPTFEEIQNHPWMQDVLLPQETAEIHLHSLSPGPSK

[20] = target: T4, Serine/threonine-protein kinase pim-1; experiment: Inhibition of recombinant human PIM-1 extracted from bacteria using histone H1 as substrate assessed as enzyme residual activity at 1 uM incubated for 30 mins in presence of ATP by ADP-Glo kinase assay relative to control
Target sequence in this assay (P11309 whole entry, looked up): as above

[21] = Selectivity index, ratio of IC50 for inhibition of recombinant rat DYRK1A kinase domain (1to 499 residues) extracted from bacteria to IC50 for inhibition of human haspin kinase domain (470 to 798 residues) extracted from bacteria using histone H3 (1 to 21) peptide as substrate
[22] = system: SH-SY5Y; experiment: Antiproliferative activity against human SH-SY5Y cells assessed as inhibition of cell viability incubated for 48 hrs by MTS assay; assay type: functional, cell-based
[23] = system: U2OS; experiment: Antiproliferative activity against human U2OS cells assessed as inhibition of cell viability incubated for 48 hrs by MTS assay; assay type: functional, cell-based
[24] = target: T4, Serine/threonine-protein kinase pim-1; experiment: Inhibition of recombinant human PIM-1 extracted from bacteria using histone H1 as substrate incubated for 30 mins in presence of ATP by ADP-Glo kinase assay
Target sequence in this assay (P11309 whole entry): as the sequence (P11309 whole entry, looked up) above

[25] = Cytotoxicity against human hTERT-RPE1 cells assessed as effect on cell viability incubated for 48 hrs by MTS assay; assay type: toxicity, cell-based, TERT-RPE1
[26] = system: HBL-100; experiment: Antiproliferative activity against human HBL-100 cells assessed as inhibition of cell viability incubated for 48 hrs by MTS assay; assay type: functional, cell-based; conditions: HBL-100, 48 h
[27] = system: HCT-116; experiment: Antiproliferative activity against human HCT-116 cells assessed as inhibition of cell viability incubated for 48 hrs by MTS assay; assay type: functional, cell-based; conditions: HCT-116, 48 h
[28] = target: T1, Serine/threonine-protein kinase haspin (Homo sapiens); experiment: Inhibition of haspin in human U2OS cells assessed as at 5 uM incubated for 16 hrs by DAPI staining based immunofluorescence analysis relative to control; assay type: cell-based

Row | Compound | Activity [2] [%] | Activity [3] [%] | IC50 [4] [µM] | Activity [5] [%] | Activity [6] [%] | Activity [7] [%] | IC50 [8] [µM] | Activity [9] [%] | IC50 [10] [µM] | Activity [11] [%] | Activity [12] [%] | Activity [13] [%] | Activity [14] [%] | Activity [15] [%] | Activity [16] [%] | Activity [17] [%] | Activity [18] [%] | Activity [19] [%] | Activity [20] [%] | EC50 [22] [µM] | other results
1 | CCCNc1ccc2ncc(-c3ccc4[nH]ncc4c3)n2n1 |  |  |  |  |  |  |  |  |  |  |  |  |  |  |  |  |  |  |  |  | inhibition [1]: 100%
2 | c1ccc(-c2c[nH]c3cc4cnccc4cc23)nc1 | 3 | 8 | 0.0844 | 11 | 10 | 27 | 0.387 | 27 | 0.159 | 49 | 90 | 72 | 84 | 90 | 97 | 35 | 72 | 19 | 63 |  | Ratio IC50 [21]: 1.9
3 | Cn1cc(-c2cccnc2)c2cc3ccncc3cc21 | 3 | 9 | 0.0317 | 12 | 7 | 18 | 0.177 | 33 | 0.498 | 39 | 81 | 34 | 69 | 65 | 94 | 75 | 79 | 54 | 45 | 17.7 | EC50 [23]: 11.5 µM; IC50 [24]: 0.876 µM; EC50 at 48 h [25]: 17.8 µM; EC50 [26]: 26.9 µM; EC50 [27]: 15 µM; inhibition [28]: No effect
4 | c1cncc(-c2c[nH]c3cc4cnccc4cc23)c1 | 2 | 7 | 0.0306 | 6 | 8 | 19 | 0.237 | 36 | 0.602 | 39 | 74 | 37 | 75 | 70 | 91 | 57 | 86 | 22 | 37 | 41.2 | EC50 [23]: 26.7 µM; IC50 [24]: 0.114 µM; EC50 at 48 h [25]: 18.2 µM; EC50 [26]: > 50 µM; EC50 [27]: 13 µM; inhibition [28]: 26%
